Results taken from patent US4246273A, “1,5-Disubstituted imidazolid-4-ones” (Beecham Group Limited, priority 1978, dated 1981).

Tested on: indomethacin induced gastric damage
Assay: Anti-ulcer activity: inhibition of indomethacin induced gastric damage in the rat
Assay type: in vivo
Settings: 100 mg/kg orally, 30 minutes prior to indomethacin 15 mg/kg s.c.; score scale 1-9 after 4 hours; vehicle control 3.71 ± 0.80; P<0.01 (Mann Witney test)
Method: Anti-ulcer activity was assessed by the inhibition of indomethacin induced gastric damage in the rat according to the method of Eleghe (1974) Israeli J. Med. Sci. 10. 1451. Rats were starved overnight and given 15 mg/kg indomethacin subcutaneously and sacrificed 4 hours later. Stomachs were reflated with n. saline, cut along the greater curvature pinned out and scored for gastric damage by the following system:
Score 1-3--according to degree of erythema and slight haemorrhage.
Score 4-6--according to degree of muscosal erosion.
Score 7-9--according to depth of gastric damage.
Groups of 7 rats were used for each treatment and the test compound or vehicle were administered 30 minutes prior to giving the indomethacin. Dose of test compound was 100 mg/kg orally and control groups receiving vehicle only were obtained using the above scoring system and the Mann Witney test applied for significance of difference between the values obtained with the treatments.

CCCCCCC(C)(O)CCN1CN(C)C(=O)C1CCCCCCC(=O)OC (stereo not shown) [Compound 6, 1-(3'-hydroxy-3'-methyl-n-nonyl)-3-methyl-5-(6"-methoxycarbonyl-n-hexyl)-4-imidazolidone]
Test Compound Mean Score ± S.E. of Mean (gastric damage): 0.71 ± 0.42
